Test results as given in patent publication US11814376B2, “Hepatitis b core protein modulators” (Assembly Biosciences, Inc., priority 2015, dated 2023).

Legend:
[1] = test system: HBV viral load in AD38 cells; assay: Viral load production in AD38 cells, quantitative PCR of the core sequence in supernatant; format: cell-based; conditions: 10 μM compound, 6 days at 37° C., supernatant qPCR, relative to DMSO control; for activity at 10 µM: Hepatitis B virus, 144 h, read-out: AD38 Viral Load (%) (VL with cmpd/VL in DMSO control) at 10 μM
[2] = test system: AD38 cells; assay: Viability of AD38 cells (Promega CellTiter-Glo); format: cell-based; conditions: 10 μM compound, 6 days, CellTiter-Glo luminescence normalized to DMSO control (100%)
Method in brief: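 AD38 cells were seeded at 50,000/well on collagen-coated plates and treated with compound added as a 10× solution in 10% DMSO for 6 days at 37° C. Viability was measured by CellTiter-Glo luminescence in tetracycline-free medium with 2% FBS and 1% DMSO, and expressed as percent of DMSO control.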

Row | Compound | activity at 10 µM [1] [%] | AD38 Viability Normalized Result (cmpd/DMSO %) at 10 μM [2] [%] | AD38 Viral Load (%) (VL with cmpd/VL in DMSO control) at 10 μM [1]
1 | O=C(NCc1cnc(-c2ccc3[nH]ccc3c2)s1)c1ccc2c(c1)NC(=O)c1ccccc1O2 [compound 1696] | 0.8 | 109 | 
2 | COc1ccc(Cc2ncc(CNC(=O)c3ccc4c(c3)NC(=O)c3ccccc3S4(=O)=O)s2)cc1 [1823-A, N-((2-(4-methoxybenzyl)thiazol-5-yl)methyl)-11-oxo-10, 11-dihydrodibenzo [b, f] [1, 4] thiazepine-8-carboxamide 5,5-dioxide] | 5.8 | 92 | 
3 | Cc1ncc(CNC(=O)c2ccc3c(c2)NC(=O)c2ccccc2O3)s1 [compound 1557] | 0.6 | 98 | 
4 | O=C(NCc1cnc(-n2cc(F)cn2)s1)c1ccc2c(c1)NC(=O)c1ccccc1S2(=O)=O [compound 11038] | 2 | 99 | 
5 | O=C(NCc1cnc(N2CCS(=O)(=O)CC2)s1)c1ccc2c(c1)NC(=O)c1ccccc1S2(=O)=O [compound 1860] | 7.5 | 98 | 
6 | O=C(NCc1cnc(C(F)(F)F)s1)c1cc2c(cc1C(F)(F)F)S(=O)(=O)c1ccccc1C(=O)N2 [compound 1936] | 13.5 | 94 | 
7 | O=C(NCc1cnc(-c2ccc(OCCCN3CCCCC3)cc2)s1)c1ccc2c(c1)NC(=O)c1ccccc1O2 [compound 11160, 11-oxo-N-((2-(4-(3-(piperidin-1-yl)propoxy)phenyl)thiazol-5-yl)methyl)-10, 11-dihydrodibenzo [b, f] [1, 4] oxazepine-8-carboxamide] | 17.7 | 104 | 
8 | Cc1c(C(=O)NCc2cnc(-n3cccn3)s2)ccc2c1NC(=O)c1ccccc1S2(=O)=O [C38-02] | 0.5 | 94 | 
9 | CC(C)(C)NCCCCc1ccc(-c2ncc(CNC(=O)c3ccc4c(c3)NC(=O)c3ccccc3S4(=O)=O)s2)cc1 [compound 11054] | 14.1 | 102 | 
10 | Nc1ccc(-c2ncc(CNC(=O)c3ccc4c(c3)NC(=O)c3ccccc3O4)s2)cn1 [compound 1707, N-((2-(6-aminopyridin-3-yl)thiazol-5-yl)methyl)-11-oxo-10, 11-dihydrodibenzo [b, f] [1, 4] oxazepine-8-carboxamide] | 10.7 | 88 | 
11 | O=C(NCc1cnc(-c2ccc(OCC3CCNCC3)cc2)s1)c1ccc2c(c1)NC(=O)c1ccccc1S2(=O)=O [compound 11137, 11-oxo-N-((2-(4-(piperidin-4-ylmethoxy)phenyl)thiazol-5-yl)methyl)-10, 11-dihydrodibenzo [b, f] [1, 4] thiazepine-8-carboxamide 5,5-dioxide] | 3.6 | 96 | 
12 | COC(=O)c1ccc(-c2ncc(CNC(=O)c3ccc4c(c3)NC(=O)c3ccccc3S4)s2)cc1 [1599-A, methyl 4-(5-((11-oxo-10, 11-dihydrodibenzo [b, f] [1, 4]thiazepine-8-carboxamido)methyl)thiazol-2-yl) benzoate] | 50.9 | 98 | 
13 | CN1CC[C@H](Oc2ccc(-c3ncc(CNC(=O)c4ccc5c(c4)NC(=O)c4ccccc4S5(=O)=O)s3)cc2)C1 [compound 11134, (S)—N-((2-(4-((1-methylpyrrolidin-3-yl)oxy)phenyl)thiazol-5-yl)methyl)-11-oxo-10, 11-dihydrodibenzo [b, f] [1, 4] thiazepine-8-carboxamide 5,5-dioxide] | 1.4 | 90 | 
14 | CN(C)CCSc1ncc(CNC(=O)c2ccc3c(c2)NC(=O)c2ccccc2S3)s1 [compound 1604] | 0.9 | 82 | 
15 | CN(C)CCCSc1ccc(-c2ncc(CNC(=O)c3ccc4c(c3)NC(=O)c3ccccc3S4(=O)=O)s2)cc1 [compound 11006, N-((2-(4-((3-(dimethylamino)propyl)thio)phenyl)thiazol-5-yl)methyl)-11-oxo-10, 11-dihydrodibenzo [b, f] [1, 4] thiazepine-8-carboxamide 5,5-dioxide] | 1.3 | 97 | 
16 | CC(C)(C)OC(=O)NCCCSc1ccc(-c2ncc(CNC(=O)c3ccc4c(c3)NC(=O)c3ccccc3S4(=O)=O)s2)cc1 [11007-A, tert-butyl (3-((4-(5-((5,5-dioxido-11-oxo-10, 11-dihydrodibenzo [b, f] [1, 4]thiazepine-8-carboxamido)methyl)thiazol-2-yl)phenyl)thio)propyl) carbamate] |  | 75 | 0.9
17 | O=C(Nc1ncc(Cl)s1)c1ccc2c(c1)NC(=O)c1ccccc1S2(=O)=O [compound 1473] | 26.5 | 79 | 

Row | Compound | activity at 10 µM [1] [%] | AD38 Viability Normalized Result (cmpd/DMSO %) at 10 μM [2] [%] | AD38 Viral Load (%) (VL with cmpd/VL in DMSO control) at 10 μM [1]
18 | Cc1cc(-c2ncc(CNC(=O)c3ccc4c(c3)NC(=O)c3ccccc3O4)s2)cc(C)c1O [compound 1738, N-((2-(4-hydroxy-3,5-dimethylphenyl)thiazol-5-yl)methyl)-11-oxo-10, 11-dihydrodibenzo [b, f] [1, 4] oxazepine-8-carboxamide] | 2.9 | 93 | 
19 | O=C(NCc1cnc(-c2cc(F)c(O)c(F)c2)s1)c1ccc2c(c1)NC(=O)c1ccccc1O2 [compound 1701] | 2.1 | 94 | 
20 | CCc1cc2c(cc1C(=O)NCc1cnc(-c3ccc(C#N)cc3F)s1)NC(=O)c1ccccc1S2(=O)=O [compound 11042] | 0.8 | 109 | 
21 | O=C(NCc1cnc(-c2ccc(CCCCN3CCCCC3)cc2)s1)c1ccc2c(c1)NC(=O)c1ccccc1S2(=O)=O [compound 11055] | 4 | 94 | 
22 | CN(CCCOc1ccc(-c2ncc(CNC(=O)c3ccc4c(c3)NC(=O)c3ccccc3S4(=O)=O)s2)cc1)C1CC1 [compound 11092] | 0.5 | 101 | 
23 | COc1cc2c(cc1C(=O)NCc1cnc(-c3ccc(C#N)cc3)s1)NC(=O)c1ccccc1S2(=O)=O [1901-A, N-((2-(4-cyanophenyl)thiazol-5-yl)methyl)-7-methoxy-11-oxo-10, 11-dihydrodibenzo [b, f] [1, 4] thiazepine-8-carboxamide 5,5-dioxide] | 3 | 118 | 
24 | CC(C)N(C)CCCOc1ccc(-c2ncc(CNC(=O)c3ccc4c(c3)NC(=O)c3ccccc3S4(=O)=O)s2)cc1 [compound 11091] | 1.3 | 89 | 
25 | N#Cc1ccc(-c2ncc(CNC(=O)c3cc4c(cc3Cl)Oc3ccccc3C(=O)N4)s2)cc1 [compound 1913] | 68.1 | 111 | 
26 | Cc1c(C(=O)NCc2cnc(-c3ccc(C#N)cc3F)s2)ccc2c1NC(=O)c1ccccc1S2(=O)=O [compound 1971] | 7 | 87 | 
27 | CC(=O)NCCCCc1ccc(-c2ncc(CNC(=O)c3ccc4c(c3)NC(=O)c3ccccc3S4(=O)=O)s2)cc1 [compound 11057] | 1 | 101 | 
28 | O=C(NCc1cnc(-c2ccc(O)cc2Cl)s1)c1ccc2c(c1)NC(=O)c1ccccc1S2(=O)=O [compound 1668] | 23.4 | 106 | 
29 | CC(NC(=O)c1ccc2c(c1)NC(=O)c1ccccc1S2)c1cncs1 (racemic) [compound 1432, 11-oxo-N-(1-(thiazol-5-yl)ethyl)-10, 11-dihydrodibenzo [b, f] [1, 4] thiazepine-8-carboxamide] | 21.8 | 101 | 
30 | O=C(NCc1cnc(N2CCS(=O)(=O)CC2)s1)c1ccc2c(c1)NC(=O)c1ccccc1O2 [compound 1866] | 2.9 | 98 | 
31 | O=C(NCc1cnc(-c2ccccc2)s1)c1ccc2c(c1)NC(=O)c1ccccc1O2 [compound 1562] | 0.9 | 97 | 
32 | CN(C)C(=O)c1ccc(-c2ncc(CNC(=O)c3ccc4c(c3)NC(=O)c3ccccc3S4(=O)=O)s2)cc1 [compound 1944] | 2.5 | 93 | 
33 | CC(=O)Nc1ccc(-c2ncc(CNC(=O)c3ccc4c(c3)NC(=O)c3ccccc3S4(=O)=O)s2)cc1 [compound 1932] | 2.2 | 101 | 
